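Where inhibition never reached the appropriate level, the endpoint shown equals the highest concentration tested. Otherwise, values were interpolated linearly from a five-concentration, 48-hour dose response in 96-well plates. GI50 marks 50% less growth.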 Calls of active or inactive are those of the source. Rule as the data show it: active = GI50 up to about 1.1 µM and inactive = higher.
Tests used:
Test in all cases: DTP human tumour cell line panel, 48 h
[1] = system: SNB-19
[2] = system: 786-0
[3] = system: SK-MEL-5
[4] = system: SK-OV-3
[5] = system: SF-268
[6] = system: UO-31
[7] = system: SN12C
[8] = system: RPMI-8226
[9] = system: UACC-62
[10] = system: PC-3
[11] = system: RXF 393
[12] = system: M14
[13] = system: CAKI-1
[14] = system: OVCAR-8
[15] = system: DU-145
[16] = system: HT-29
[17] = system: HOP-62
[18] = system: SW-620
[19] = system: HCC 2998
[20] = system: CCRF-CEM

Structure (SMILES) | GI50 [1] | GI50 [2] | GI50 [3] | GI50 [4] | GI50 [5] | GI50 [6] | GI50 [7] | GI50 [8] | GI50 [9] | GI50 [10] | GI50 [11] | GI50 [12] | GI50 [13] | GI50 [14] | GI50 [15] | GI50 [16] | GI50 [17] | GI50 [18] | GI50 [19] | GI50 [20]
O=C(O)c1ccccc1-c1ccccc1C(=O)Nc1ccc2c(c1)Cc1cc(F)ccc1-2 | 36.4 µM (inactive) | 24.3 µM (inactive) | 19.5 µM (inactive) | 31.3 µM (inactive) | 43.6 µM (inactive) | 27.8 µM (inactive) | 12.3 µM (inactive) | 31.5 µM (inactive) | 17.7 µM (inactive) | 26.4 µM (inactive) | 32.2 µM (inactive) | 19.7 µM (inactive) | 30.4 µM (inactive) | 35.2 µM (inactive) | 33.6 µM (inactive) | 22.8 µM (inactive) | 24.9 µM (inactive) | 33.7 µM (inactive) | 16.3 µM (inactive) | –
CC(C)N1CCN(c2ccncc2S(=O)(=O)N2CCCCC2)CC1 | > 100 µM (inactive) | > 100 µM (inactive) | > 100 µM (inactive) | > 100 µM (inactive) | > 100 µM (inactive) | > 100 µM (inactive) | > 100 µM (inactive) | > 100 µM (inactive) | > 100 µM (inactive) | > 100 µM (inactive) | > 100 µM (inactive) | > 100 µM (inactive) | > 100 µM (inactive) | > 100 µM (inactive) | > 100 µM (inactive) | > 100 µM (inactive) | > 100 µM (inactive) | > 100 µM (inactive) | > 100 µM (inactive) | –
O=C(O)C(Cc1ccccc1)Cc1ccccc1 | > 100 µM (inactive) | > 100 µM (inactive) | > 100 µM (inactive) | > 100 µM (inactive) | > 100 µM (inactive) | > 100 µM (inactive) | > 100 µM (inactive) | > 100 µM (inactive) | > 100 µM (inactive) | > 100 µM (inactive) | > 100 µM (inactive) | > 100 µM (inactive) | > 100 µM (inactive) | > 100 µM (inactive) | > 100 µM (inactive) | > 100 µM (inactive) | > 100 µM (inactive) | > 100 µM (inactive) | – | > 100 µM (inactive)
Cc1cccc(/C=N/NC(=S)N(C)CCc2ccccn2)n1 | 0.729 µM (active) | 0.281 µM (active) | 0.314 µM (active) | 0.541 µM (active) | 0.278 µM (active) | 0.271 µM (active) | 0.378 µM (active) | 0.104 µM (active) | 0.287 µM (active) | 0.288 µM (active) | – | 0.329 µM (active) | 0.421 µM (active) | 0.336 µM (active) | 0.236 µM (active) | 0.265 µM (active) | 0.32 µM (active) | 0.361 µM (active) | 0.453 µM (active) | 0.0288 µM (active)
COc1ccc2nc(-c3ccc(O)cc3)cn2c1 | > 100 µM (inactive) | 58.7 µM (inactive) | 16.6 µM (inactive) | > 100 µM (inactive) | 56.8 µM (inactive) | 35 µM (inactive) | 94.8 µM (inactive) | 32.2 µM (inactive) | 24.7 µM (inactive) | 43.9 µM (inactive) | > 100 µM (inactive) | 47.4 µM (inactive) | 55.8 µM (inactive) | 51.3 µM (inactive) | 86.9 µM (inactive) | 46.6 µM (inactive) | 50.1 µM (inactive) | 11.7 µM (inactive) | – | 72.1 µM (inactive)
CCOC(=O)/C=C(/C(=O)OCC)n1ccc(=O)n(CC(=O)OCC)c1=O | 10.8 µM (inactive) | 0.412 µM (active) | 2.36 µM (inactive) | 14.4 µM (inactive) | 3.11 µM (inactive) | 1.63 µM (inactive) | 1.1 µM (active) | – | 1.64 µM (inactive) | 1.67 µM (inactive) | 1.15 µM (inactive) | 1.37 µM (inactive) | 0.146 µM (active) | 2.39 µM (inactive) | 5.01 µM (inactive) | 1.58 µM (inactive) | 17.2 µM (inactive) | 0.265 µM (active) | 2.36 µM (inactive) | 0.169 µM (active)
Cn1c(S)nc2c(Cl)cc(Cl)cc2c1=O | > 100 µM (inactive) | > 100 µM (inactive) | 99.5 µM (inactive) | 74 µM (inactive) | > 100 µM (inactive) | 64 µM (inactive) | > 100 µM (inactive) | – | > 100 µM (inactive) | > 100 µM (inactive) | > 100 µM (inactive) | > 100 µM (inactive) | 67.9 µM (inactive) | > 100 µM (inactive) | > 100 µM (inactive) | – | > 100 µM (inactive) | > 100 µM (inactive) | > 100 µM (inactive) | 24.8 µM (inactive)
CN(C(=O)Cc1cc(Cl)c(Cl)cc1NC(=O)CCCN)[C@H]1CCCC[C@@H]1N1CCCC1 | 19.8 µM (inactive) | 19.5 µM (inactive) | 16.1 µM (inactive) | 95.5 µM (inactive) | 13.9 µM (inactive) | > 100 µM (inactive) | 63.5 µM (inactive) | > 100 µM (inactive) | 19.8 µM (inactive) | 40.3 µM (inactive) | 16.1 µM (inactive) | 19 µM (inactive) | > 100 µM (inactive) | > 100 µM (inactive) | > 100 µM (inactive) | 20.5 µM (inactive) | > 100 µM (inactive) | 28.6 µM (inactive) | 16.6 µM (inactive) | –
CCN(CC)CCO/N=C1\CC[C@H]2[C@@H]3CC=C4C[C@@H](O)CC[C@]4(C)[C@H]3CC[C@]12C | 31.4 µM (inactive) | 17.3 µM (inactive) | 12.1 µM (inactive) | – | 34 µM (inactive) | 15.8 µM (inactive) | 45.6 µM (inactive) | 16.9 µM (inactive) | 16.9 µM (inactive) | 19 µM (inactive) | 17.5 µM (inactive) | – | 14.5 µM (inactive) | 21.5 µM (inactive) | 18.9 µM (inactive) | 3.67 µM (inactive) | 17.6 µM (inactive) | 15.1 µM (inactive) | 16.9 µM (inactive) | –
CCOC(=O)/C(C(N)=O)=C(O)/C(O)=C/C(=O)c1ccc(Cl)cc1 | 33.3 µM (inactive) | 17.2 µM (inactive) | 19.9 µM (inactive) | 20.6 µM (inactive) | 20.6 µM (inactive) | 18.6 µM (inactive) | 16.5 µM (inactive) | 19.8 µM (inactive) | 20.6 µM (inactive) | 19.1 µM (inactive) | 15.9 µM (inactive) | 21.2 µM (inactive) | 24.1 µM (inactive) | 17.7 µM (inactive) | 14.8 µM (inactive) | 21.8 µM (inactive) | 21.9 µM (inactive) | 20.5 µM (inactive) | – | 4.53 µM (inactive)
CC(Br)C(=O)NC(CO)C(=O)O (centres undefined) | > 100 µM (inactive) | > 100 µM (inactive) | > 100 µM (inactive) | > 100 µM (inactive) | > 100 µM (inactive) | > 100 µM (inactive) | > 100 µM (inactive) | > 100 µM (inactive) | > 100 µM (inactive) | > 100 µM (inactive) | > 100 µM (inactive) | > 100 µM (inactive) | > 100 µM (inactive) | > 100 µM (inactive) | > 100 µM (inactive) | > 100 µM (inactive) | > 100 µM (inactive) | > 100 µM (inactive) | – | > 100 µM (inactive)
COc1cc(N(CCC#N)CCC#N)ccc1C(/N=N/c1ccccc1C)=N\NC(=O)c1ccc(C)cc1 | 63 µM (inactive) | 36.6 µM (inactive) | > 100 µM (inactive) | > 100 µM (inactive) | 64.4 µM (inactive) | 76.2 µM (inactive) | 44.1 µM (inactive) | – | 43.4 µM (inactive) | 59.3 µM (inactive) | > 100 µM (inactive) | > 100 µM (inactive) | > 100 µM (inactive) | 71 µM (inactive) | > 100 µM (inactive) | 85.3 µM (inactive) | > 100 µM (inactive) | 72.9 µM (inactive) | 85.3 µM (inactive) | 15.2 µM (inactive)
CNn1c(C)n[nH]c1=O | > 100 µM (inactive) | > 100 µM (inactive) | > 100 µM (inactive) | > 100 µM (inactive) | > 100 µM (inactive) | > 100 µM (inactive) | > 100 µM (inactive) | > 100 µM (inactive) | > 100 µM (inactive) | > 100 µM (inactive) | – | > 100 µM (inactive) | > 100 µM (inactive) | > 100 µM (inactive) | > 100 µM (inactive) | – | > 100 µM (inactive) | > 100 µM (inactive) | > 100 µM (inactive) | > 100 µM (inactive)
C=C1CC(C#N)(C#N)[C@@H]2CC3CCCC3[C@H]12.C=C1CC(C#N)(C#N)[C@H]2C3CCCC3C[C@@H]12 (some centres undefined) | 29.8 µM (inactive) | 10.5 µM (inactive) | 24.7 µM (inactive) | 25.4 µM (inactive) | 23.3 µM (inactive) | 20.7 µM (inactive) | 15.7 µM (inactive) | – | 25.9 µM (inactive) | 30.1 µM (inactive) | 22.1 µM (inactive) | 15.6 µM (inactive) | – | 17.8 µM (inactive) | 38.4 µM (inactive) | 14 µM (inactive) | 10 µM (inactive) | 15 µM (inactive) | – | 10 µM (inactive)
O=S(=O)(F)Cc1ccccc1 [PHENYLMETHYLSULFONYLFLUORIDE] | > 100 µM (inactive) | > 100 µM (inactive) | > 100 µM (inactive) | > 100 µM (inactive) | > 100 µM (inactive) | > 100 µM (inactive) | > 100 µM (inactive) | > 100 µM (inactive) | > 100 µM (inactive) | > 100 µM (inactive) | – | > 100 µM (inactive) | > 100 µM (inactive) | > 100 µM (inactive) | > 100 µM (inactive) | > 100 µM (inactive) | > 100 µM (inactive) | > 100 µM (inactive) | > 100 µM (inactive) | > 100 µM (inactive)

Source: ChEMBL document CHEMBL1201862, “PubChem BioAssay data set” (2004)
